# Reference: US9485989B2, “Method of controlling neonicotinoid resistant hemiptera” (Syngenta Participations AG, priority 2010, dated 2016)
# Test system: Myzus Persicae (Green Peach Aphid)
# Experiment: Example B1: Myzus persicae mixed population, feeding/residual contact activity, preventive (sunflower leaf discs)
# Format: in vivo
# Settings: foliar, 144 h, A: neonicotinoid insecticides susceptible Myzus persicae (mixed age population), 6 DAT, read-out: Mortality (A)
# Procedure: Myzus Persicae (Green Peach Aphid): Mixed Population, Feeding/Residual Contact Activity, Preventive
# Sunflower leaf discs are placed on agar in a 24-well microtiter plate and sprayed with test solutions. After drying, the leaf discs are infested with an aphid population of mixed ages. After an incubation period of 6 DAT, samples are checked for mortality.
row,SMILES,mortality at 200 ppm [%]
1,"CCOC(=O)OC1=C(c2c(C)cc(C)cc2C)C(=O)N(C)C12CCN(OC)CC2 [P1.2, Carbonic acid ethyl ester 8-methoxy-1-methyl-2-oxo-3-(2,4,6-trimethyl-phenyl)-1,8-diaza-spiro[4.5]dec-3-en-4-yl ester]",95

# Same assay, conditions: foliar, 144 h, B: neonicotinoid insecticides resistant Myzus persicae (mixed age population), 6 DAT, read-out: Mortality (B)
row,SMILES,mortality at 200 ppm [%]
1,"CCOC(=O)OC1=C(c2c(C)cc(C)cc2C)C(=O)N(C)C12CCN(OC)CC2 [P1.2, Carbonic acid ethyl ester 8-methoxy-1-methyl-2-oxo-3-(2,4,6-trimethyl-phenyl)-1,8-diaza-spiro[4.5]dec-3-en-4-yl ester]",90

# Test system: IND3 strain of Nilaparvata lugens (Neonicotinoid resistant)
# Experiment: Example B2b: Nilaparvata lugens larvicide, feeding/contact activity, preventive (rice seedlings), resistant strain
# Format: in vivo
# Settings: Lowest concentration giving greater than 80% mortality of resistant (IND3) hoppers / same for susceptible hoppers; Nilaparvata lugens N3 nymphs on rice seedlings, 6 and 12 days after treatment
# Description: (§1) The level of resistance and therefore the impact on the performance of the insecticide can be measured by the use of a ‘Resistance Factor’. The resistance factor can be calculated by dividing the concentration of an insecticide that provides a set level of mortality (i.e. 80%) for the ‘resistant’ strain with the concentration of the same insecticide that provides the same level of mortality for the ‘susceptible’ insect of the same species and life-stage. Although there are no set rules, a low value (1-10) indicates no cross-resistance and only natural levels of variation and a high value (50+) provides strong evidence of cross-resistance.
# b) Neonicotinoid Resistant Strain of the Brown Planthopper (Nilaparvata lugens)
# Nilaparvata lugens strains utilised: • Standard screening strain of Nilaparvata lugens (Neonicotinoid susceptible) • IND3 strain of Nilaparvata lugens (Neonicotinoid resistant) Bioassay Method:
# Nilaparvata lugens: larvicide, feeding/contact activity, preventive
# Rice seedlings are treated with the diluted test solutions in a turn table spray chamber. After drying, they are infested with 20 N3 nymphs. 6 and 12 days after the treatment samples are checked for mortality, growth regulation, and effects on the F1 generation.
row,SMILES,Resistance Factor (RF80)
1,CCOC(=O)OC1=C(c2c(C)cc(Cl)cc2C)C(=O)N(C)C12CCN(OC)CC2,4
2,CON1CCC2(CC1)C(=O)C(c1c(C)cc(C)cc1C)C(=O)N2C (stereo not shown),1
3,CCOC(=O)OC1=C(c2c(C)cc(C)cc2C)C(=O)N(OC2CCCO2)C12CCN(OC)CC2 (stereo not shown),1
4,CCOC(=O)OC1=C(c2c(C)cc(C)cc2C)C(=O)N(OCC)C12CCN(OC)CC2 [drawing 473],<1
5,"CN1COCN(Cc2cnc(Cl)s2)/C1=N\[N+](=O)[O-] [thiamethoxam, reference compound]",>64

# Same assay, conditions: neonicotinoid resistant IND3 versus susceptible Nilaparvata lugens
row,SMILES,Resistance factor (RF)
1,"CN1COCN(Cc2cnc(Cl)s2)/C1=N\[N+](=O)[O-] [thiamethoxam, reference compound]",high

# Test system: not given
# Experiment: not given
# Settings: not given
row,SMILES,melting point
1,CCOC(=O)OC1=C(c2cc(C)ccc2C)C(=O)N(C)C12CCN(OC)CC2 [P1.1],96 to 110 °C
2,CCOC(=O)OC1=C(c2c(C)cc(C)cc2C)C(=O)N(CC)C12CCN(OC)CC2 [P1.8],101 to 103 °C
3,CCOC(=O)OC1=C(c2cc(C)c(C)cc2Br)C(=O)N(C)C12CCN(OC)CC2 [P1.20],158 to 159 °C
4,CCOC(=O)OC1=C(c2cc(C)c(C)cc2Cl)C(=O)N(C)C12CCN(OC)CC2 [P1.22],149 to 150 °C
5,COCON1C(=O)C(c2cc(C)ccc2C)=C(OC(=O)CC(C)(C)C)C12CCN(OC)CC2 [P1ii.5],93 to 95 °C
6,COCON1C(=O)C(c2cc(C)ccc2C)=C(OC)C12CCN(OC)CC2 [P1ii.31],91 to 93 °C
7,CCOC(=O)OC1=C(c2c(Cl)ccc(C)c2F)C(=O)N(OC2CCCC2)C12CCN(OC)CC2 [P1ii.43],135 to 137 °C
8,CCOC(=O)OC1=C(c2c(F)ccc(C)c2Cl)C(=O)N(OCOC)C12CCN(OC)CC2 [P1ii.61],116 to 119 °C
9,CCOC(=O)OC1=C(c2c(C)cc(Cl)cc2C)C(=O)N(OC)C12CCN(OC)CC2 [P1ii.114],122 to 125 °C
10,CON1CCC2(CC1)C(O)=C(c1cc(C)ccc1C)C(=O)N2C [P2.1],121 to 123 °C
11,"CON1CCC2(CC1)C(O)=C(c1c(C)cc(C)cc1C)C(=O)N2CC1CC1 [P2.8, 1-Cyclopropylmethyl-4-hydroxy-8-methoxy-3-(2,4,6-trimethyl-phenyl)-1,8-diaza-spiro[4.5]dec-3-en-2-one]",223 to 225 °C
12,CCN1C(=O)C(c2c(C)cc(C)cc2C)=C(O)C12CCN(OC)CC2 [P2.11],218 to 221 °C
13,CON1CCC2(CC1)C(O)=C(c1cc(C)c(C)cc1Br)C(=O)N2C [P2.23],191 to 193 °C
14,CON1CCC2(CC1)C(O)=C(c1cc(C)c(C)cc1C)C(=O)N2C [P2.25],183 to 186 °C
15,"CON1CCC2(CC1)C(O)=C(c1cc(C)c(C)cc1Cl)C(=O)N2C [P2.26, 3-(2-Chloro-4,5-dimethyl-phenyl)-4-hydroxy-8-methoxy-1-methyl-1,8-diaza-spiro[4.5]dec-3-en-2-one]",191 to 192 °C
16,CON1CCC2(CC1)C(O)=C(c1cc(Br)c(C)cc1C)C(=O)N2C [P2.28],182 to 183 °C
17,"COCON1C(=O)C(c2c(C)cc(-c3ccc(Cl)cc3)cc2C)=C(O)C12CCN(OC)CC2 [P2ii.15, 3-(4′-Chloro-3,5-dimethyl-biphenyl-4-yl)-4-hydroxy-8-methoxy-1-methoxymethoxy-1,8-diaza-spiro[4.5]dec-3-en-2-one]",128 °C (dec.)
18,CON1CCC2(CC1)C(O)=C(c1c(C)cc(C)cc1C)C(=O)N2OCCOC1CCCCO1 (stereo not shown) [P2ii.22],135 to 137 °C
19,COCON1C(=O)C(c2c(F)ccc(C)c2Cl)=C(O)C12CCN(OC)CC2 [P2ii.60],155 to 158 °C
20,COCCON1C(=O)C(c2cc(Br)c(C)cc2C)=C(O)C12CCN(OC)CC2 [P2ii.73],63 to 64 °C
21,CON1CCC2(CC1)C(O)=C(c1cc(Br)c(C)cc1C)C(=O)N2OC [P2ii.75],86 to 87 °C
22,COCCON1C(=O)C(c2cc(Br)c(F)cc2C)=C(O)C12CCN(OC)CC2 [P2ii.87],71 to 74 °C
23,COCON1C(=O)C(c2cc(Br)c(F)cc2C)=C(O)C12CCN(OC)CC2 [P2ii.89],64 to 67 °C
24,CON1CCC2(CC1)C(O)=C(c1c(C)cc(C)cc1C)C(=O)N2OCC1CCCCC1 [P2ii.96],169 to 172 °C
25,COCCON1C(=O)C(c2c(C)cc(Cl)cc2C)=C(O)C12CCN(OC)CC2 [P2ii.101],161 to 164 °C
26,CON1CCC2(CC1)C(O)=C(c1c(C)cc(Cl)cc1C)C(=O)N2OC [P2ii.102],88 to 92 °C
27,COCON1C(=O)C(c2c(C)cc(Cl)cc2C)=C(O)C12CCN(OC)CC2 [P2ii.104],176 to 178 °C
28,CON1CCC2(CC1)C(O)=C(c1c(C)cc(Cl)cc1C)C(=O)N2OC1CCCO1 (stereo not shown) [P2ii.105],137 to 139 °C

# Test system: FRC-P strain of Myzus persicae (Neonicotinoid resistant)
# Experiment: Example B2a: Myzus persicae mixed population, contact activity, curative on pea seedlings, resistant strain
# Format: in vivo
# Settings: Lowest concentration giving greater than 80% mortality of resistant (FRC-P) aphids / same for susceptible aphids; Myzus persicae on pea seedlings, spray, 6 days after treatment
# Description: as §1
# a) Neonicotinoid and Pyrethroid Resistant Strain of the Green Peach Aphid (Myzus persicae)
# Myzus persicae strains utilised: • Standard screening strain of Myzus persicae (Neonicotinoid susceptible) • FRC-P strain of Myzus persicae (Neonicotinoid resistant) Bioassay Method:
# Myzus persicae: mixed population, contact activity, curative on pea seedlings
# Pea seedlings, infested with an aphid population of mixed ages, are treated with the test solutions in a spray chamber. 6 days after treatment, samples are checked for mortality.
row,SMILES,Resistance Factor (RF80)
1,CON1CCC2(CC1)NC(=O)C(c1c(C)cc(Cl)cc1C)C2=O (stereo not shown),1
2,CCOC(=O)OC1=C(c2c(C)cc(Cl)cc2C)C(=O)NC12CCN(OC)CC2,<1
3,CON1CCC2(CC1)C(=O)C(c1c(C)cc(C)cc1C)C(=O)N2OC1CCCO1 (stereo not shown),<1
4,CCOC(=O)OC1=C(c2c(C)cc(C)cc2C)C(=O)NC12CCN(OC)CC2,4
5,CON1CCC2(CC1)NC(=O)C(c1c(C)cc(C)cc1C)C2=O (stereo not shown),4
6,CCOC(=O)OC1=C(c2c(C)cc(C)cc2C)C(=O)N(OCC)C12CCN(OC)CC2 [drawing 468],4
7,CCOC(=O)OC1=C(c2c(C)cc(C)cc2C)C(=O)N(C)C12CCN(OC)CC2 [drawing 471],1
8,"CN1COCN(Cc2cnc(Cl)s2)/C1=N\[N+](=O)[O-] [thiamethoxam, reference compound]",>250

# Same assay, conditions: neonicotinoid resistant FRC-P versus susceptible Myzus persicae; mortality 6 days after treatment
row,SMILES,Resistance factor (RF)
1,"CN1COCN(Cc2cnc(Cl)s2)/C1=N\[N+](=O)[O-] [thiamethoxam, reference compound]",high

# Test system: ALM07 strain (Neonicotinoid and pyrethroid resistant) of the Tobacco Whitefly (Bemisia tabaci)
# Experiment: Example B2c: Bemisia tabaci residual activity, preventive egg lay (cotton seedlings), resistant strain
# Format: in vivo
# Settings: Concentration giving 50% control of resistant (ALM07) whitefly egg lay / same for susceptible whitefly; Bemisia tabaci on cotton seedlings, 3 days after exposure
# Description: as §1
# c) Neonicotinoid and Pyrethroid Resistant Strain of the Tobacco Whitefly (Bemisia tabaci)
# Bemisia tabaci strains utilised: • Standard screening strain of Bemisia tabaci (Neonicotinoid susceptible) • ALM07 strain of […] (Neonicotinoid and pyrethroid resistant) and originally provided by Rothamsted Research, UK. (>250 RF in residual mortality bioassay of adult whitefly with thiamethoxam). Bioassay Method: […]
# Cotton seedlings, with all but a single leaf removed are treated with the diluted test solutions in a turn table spray chamber. […] 3 days after exposure, the total number of adult whitefly and the total number of whitefly eggs laid on the leaf are counted. Percentage control of egg lay is calculated and corrected for control mortality.
row,SMILES,Resistance Factor (RF50)
1,CCOC(=O)OC1=C(c2c(C)cc(C)cc2C)C(=O)N(C)C12CCN(OC)CC2 [drawing 476],4
